One compound from paper PMC9863691, “A Novel Ferroptosis Inhibitor UAMC-3203, a Potential Treatment for Corneal Epithelial Wound” (Pharmaceutics, 2022) can be followed below.

Each structure is given as a SMILES string.

The nature of the data set: chemical stability of 100 µM solution in PBS. Type of data set: physicochemical. The method, then: The chemical stability of 100 µM UAMC-3203 in PBS (pH 7.4) was investigated for 30 days as described previously. Briefly, four batches with triplicates were stored at 4, 25, or 37 °C with light protection and at 25 °C without light protection. Separate solutions were used for pH-dependent stability studies. Samples were collected, and pH was measured at various times. The samples were stored at −20 °C until HPLC analysis.
The quantitation of UAMC-3203 was performed with […] reverse-phase HPLC system consisting of a degasser (G1379B), multi-sampler (G1367D), a binary pump (G1312B), a thermostat (G1316B), and a diode array detector (DAD) detector (G1315C). A Zorbax Eclipse XDB-C18 (4.6 × 50 mm, 4 μm; Agilent Technologies, Santa Clara, CA, USA) column was used for the analyses. The mobile phase was composed of 0.1% […] (Sigma-Aldrich, St. Louis, MO, USA) in Milli-Q-H2O and 0.1% […] in acetonitrile (LC-MS Chromasolv, Honeywell, Riedel-de Haen, Seelze, Germany) (65:35% v/v). Isocratic analysis was performed at a flow rate of 1 mL/min. The injection volume was 5 μL, and the detection wavelength was 240 nm.

In the case of `O=S(=O)(NCCN1CCNCC1)c1ccc(NC2CCCCC2)c(NCc2ccccc2)c1` [UAMC-3203], for the setting “100 µM in PBS pH 7.4, various temperatures and light exposure conditions”, the “% of initial concentration at day 30” value is listed as “about 90%”. Also, the “pH of the solution during 30 days” value (starting pH 7.4, all conditions) is reported as 7.5–7.6.
